Structures are written as SMILES. Positions of bridges follow the written chain, without caps; N, C: chain ends. Non-standard residues stand in square brackets, D forms with d. Residues, ends and D or L forms follow the SMILES beside them. *: point of attachment. Trp(1-CH2COOH) = N[C@@H](Cc1cn(CC(=O)O)c2ccccc12)C(=O)O; Hyp = O=C(O)[C@@H]1C[C@@H](O)CN1; X19 = CCOC(=O)c1ccc(NC(=S)*)cc1; X3 = S=C(Nc1ccc(Oc2ccccc2)cc1)*; X96 = Fc1cc(F)c(NC(=S)*)c(F)c1; NMeNle = CCCC[C@H](NC)C(=O)O; NMeA = CN[C@@H](C)C(=O)O; Dab = NCC[C@H](N)C(=O)O; Dap = NC[C@H](N)C(=O)O

The target in the test is T1, PD-1/PD-L1 (Homo sapiens, UniProt Q9NZQ7).
T1 construct: TVMV protease site linker (C); made in house; host or cells: HEK293T cells
T1 sequence (Q9NZQ7 18-239): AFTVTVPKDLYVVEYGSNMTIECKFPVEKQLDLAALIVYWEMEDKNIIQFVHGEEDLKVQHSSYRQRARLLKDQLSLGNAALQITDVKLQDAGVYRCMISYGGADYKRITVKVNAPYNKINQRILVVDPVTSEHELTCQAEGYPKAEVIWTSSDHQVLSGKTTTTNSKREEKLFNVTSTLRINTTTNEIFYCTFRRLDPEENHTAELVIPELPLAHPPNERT
In words: PD-1/PD-L1 Homogenous Time-Resolved Fluorescence (HTRF) binding assay. The conditions noted are these: PD-L1-His 10 nM pre-incubated with inhibitor, PD-1-Ig 20 nM; read-out: HTRF IC50. An outline of the steps: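 Compounds preincubated 15 min with PD-L1-His (10 nM final), then PD-1-Ig (20 nM final) added for 15 min in dPBS with 0.1% BSA, 0.05% Tween-20. Detection by Eu-cryptate anti-Ig (1 nM) and APC anti-His (20 nM) HTRF.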
In general terms: In TR-FRET formats the signal depends on donor and acceptor labels being close together.
Broadly, the IC50 is the concentration needed to halve the response being measured. In the case of `CCCC[C@H]1C(=O)N(C)[C@@H](CCCC)C(=O)N[C@@H](CC(C)C)C(=O)N[C@H](C(=O)NCC(N)=O)CSCC(=O)N[C@@H](Cc2ccc(O)cc2)C(=O)N(C)[C@@H](C)C(=O)N[C@@H](CC(N)=O)C(=O)N2CCC[C@H]2C(=O)N[C@@H](CNC(=S)Nc2ccc(C(=O)OCC)cc2)C(=O)N[C@@H](CC(C)C)C(=O)N2C[C@H](O)C[C@H]2C(=O)N[C@@H](Cc2c[nH]c3ccccc23)C(=O)N[C@@H](CCN)C(=O)N[C@@H](Cc2cn(CC(=O)O)c3ccccc23)C(=O)N1C` [Example 1042] ({CH2CO}-Y[NMeA]NP[Dap](X19)L[Hyp]W[Dab][Trp(1-CH2COOH)][NMeNle][NMeNle]LCG-NH2; thioether N-14), the IC50 amounted to 4 nM.

Turning to `CCCC[C@H]1C(=O)N(C)[C@@H](CCCC)C(=O)N[C@@H](CC(C)C)C(=O)N[C@H](C(=O)NCC(N)=O)CSCC(=O)N[C@@H](Cc2ccc(O)cc2)C(=O)N(C)[C@@H](C)C(=O)N[C@@H](CC(N)=O)C(=O)N2CCC[C@H]2C(=O)N[C@@H](CNC(=S)Nc2ccc(C(=O)OCC)cc2)C(=O)N[C@@H](CC(C)C)C(=O)N2C[C@H](O)C[C@H]2C(=O)N[C@@H](Cc2c[nH]c3ccccc23)C(=O)N[C@@H](CCNC(=S)Nc2ccc(C(=O)OCC)cc2)C(=O)N[C@@H](Cc2cn(CC(=O)O)c3ccccc23)C(=O)N1C` [Example 1043] ({CH2CO}-Y[NMeA]NP[Dap](X19)L[Hyp]W[Dab](X19)[Trp(1-CH2COOH)][NMeNle][NMeNle]LCG-NH2; thioether N-14), the IC50 amounted to 0.6 nM.

As for `CCCC[C@H]1C(=O)N(C)[C@@H](CCCC)C(=O)N[C@@H](CC(C)C)C(=O)N[C@H](C(=O)NCC(N)=O)CSCC(=O)N[C@@H](Cc2ccc(O)cc2)C(=O)N(C)[C@@H](C)C(=O)N[C@@H](CC(N)=O)C(=O)N2CCC[C@H]2C(=O)N[C@@H](CNC(=S)Nc2c(F)cc(F)cc2F)C(=O)N[C@@H](CC(C)C)C(=O)N2C[C@H](O)C[C@H]2C(=O)N[C@@H](Cc2c[nH]c3ccccc23)C(=O)N[C@@H](CCNC(=S)Nc2c(F)cc(F)cc2F)C(=O)N[C@@H](Cc2cn(CC(=O)O)c3ccccc23)C(=O)N1C` [Example 1044] ({CH2CO}-Y[NMeA]NP[Dap](X96)L[Hyp]W[Dab](X96)[Trp(1-CH2COOH)][NMeNle][NMeNle]LCG-NH2; thioether N-14), the IC50 was 3.3 nM.

As for `CCCC[C@H]1C(=O)N(C)[C@@H](CCCC)C(=O)N[C@@H](CC(C)C)C(=O)N[C@H](C(=O)NCC(N)=O)CSCC(=O)N[C@@H](Cc2ccc(O)cc2)C(=O)N(C)[C@@H](C)C(=O)N[C@@H](CC(N)=O)C(=O)N2CCC[C@H]2C(=O)N[C@@H](CNC(=S)Nc2ccc(Oc3ccccc3)cc2)C(=O)N[C@@H](CC(C)C)C(=O)N2C[C@H](O)C[C@H]2C(=O)N[C@@H](Cc2c[nH]c3ccccc23)C(=O)N[C@@H](CCN)C(=O)N[C@@H](Cc2cn(CC(=O)O)c3ccccc23)C(=O)N1C` [Example 1045] ({CH2CO}-Y[NMeA]NP[Dap](X3)L[Hyp]W[Dab][Trp(1-CH2COOH)][NMeNle][NMeNle]LCG-NH2; thioether N-14), the IC50 stood at 3.3 nM.

As to `CCCC[C@H]1C(=O)N(C)[C@@H](CCCC)C(=O)N[C@@H](CC(C)C)C(=O)N[C@H](C(=O)NCC(N)=O)CSCC(=O)N[C@@H](Cc2ccc(O)cc2)C(=O)N(C)[C@@H](C)C(=O)N[C@@H](CC(N)=O)C(=O)N2CCC[C@H]2C(=O)N[C@@H](CNC(=S)Nc2ccc(Oc3ccccc3)cc2)C(=O)N[C@@H](CC(C)C)C(=O)N2C[C@H](O)C[C@H]2C(=O)N[C@@H](Cc2c[nH]c3ccccc23)C(=O)N[C@@H](CCNC(=S)Nc2ccc(Oc3ccccc3)cc2)C(=O)N[C@@H](Cc2cn(CC(=O)O)c3ccccc23)C(=O)N1C` [Example 1046] ({CH2CO}-Y[NMeA]NP[Dap](X3)L[Hyp]W[Dab](X3)[Trp(1-CH2COOH)][NMeNle][NMeNle]LCG-NH2; thioether N-14), the IC50 came to 11 nM.

(Values after patent publication US20220389061A1, “IMMUNOMODULATORS” (priority 2019, published 2022).)
